In ChEMBL document CHEMBL4402583, “Rational Substitution of ε-Lysine for α-Lysine Enhances the Cell and Membrane Selectivity of Pore-Forming Melittin” (J Med Chem, 2020):
≈ marks a conversion by molar mass, not a printed value. Calls of active or inactive are those of the source. No cut-off for these calls is given here.

Legend:
[1] = Hemolytic activity against human erythrocytes assessed as hemoglobin release incubated for 1 hr; assay type: ADME, cell-based, Erythrocyte; conditions: read-out: HD50
Enterococcus faecalis [2] = assay: Resistance index, ratio of MIC for vancomycin-resistant Enterococcus faecalis 1010 measured after 20 serial passages by broth microdilution method to MIC for vancomycin-resistant Enterococcus faecalis 1010 incubated for 24 hrs by broth microdilution method; assay type: functional
Acinetobacter baumannii [3] = assay: Antibacterial activity against Acinetobacter baumannii ATCC 19606 assessed as reduction in bacterial growth at sublethal concentrations measured after 20 serial passages by broth microdilution method; assay type: functional, organism-based; conditions: ATCC 19606 = CIP 70.34 = JCM 6841
Oryctolagus cuniculus [4] = assay: Induction of reepithelialization in injured New Zealand white rabbit cornea assessed as wound healing administered topically for qid measured at day 3 post-injury by fluorescein sodium staining based microscopic imaging analysis (reference value: 63.9 +/- 5.3 %); assay type: organism-based; conditions: in vivo, topical_or_ocular
HaCaT = assay: Cytotoxicity against human HaCaT cells assessed as truncation and reduction in cytoskeleton at 500 ug/ml incubated for 24 hrs by Alexa Fluor […] phalloidin-FITC/Hoescht dye staining based fluorescence microscopic analysis; assay type: cell-based
[5] = Stability of the compound in rabbit tear fluids assessed as parent compound remaining measured after 4 hrs by UPLC-MS analysis; assay type: ADME, Oryctolagus cuniculus; conditions: tear fluid, read-out: Stability
Oryctolagus cuniculus [6] = assay: Induction of reepithelialization in injured New Zealand white rabbit cornea assessed as wound healing administered topically for qid measured at day 8 post-injury by fluorescein sodium staining based microscopic imaging analysis (reference value: 3.8 %); assay type: organism-based; conditions: in vivo, topical_or_ocular
Enterococcus faecalis [7] = assay: Induction of pore formation in intact vancomycin-resistant Enterococcus faecalis 1002 cell membrane assessed as SG uptake at 2 times MIC by SG dye based fluorescence based assay; assay type: organism-based
Candida albicans = assay: Antifungal activity against Candida albicans assessed as reduction in fungal growth incubated for 24 hrs by broth microdilution method; assay type: functional
Enterococcus faecalis [8] = assay: Induction of pore formation in intact vancomycin-resistant Enterococcus faecalis ATCC 29212 cell membrane assessed as SG uptake at 2 times MIC by SG dye based fluorescence based assay; assay type: organism-based
Staphylococcus aureus [9] = assay: Antibacterial activity against methicillin-resistance Staphylococcus aureus assessed as reduction in bacterial growth incubated for 24 hrs by broth microdilution method; assay type: functional
Acinetobacter baumannii [10] = assay: Antibacterial activity against Acinetobacter baumannii 1001 assessed as reduction in bacterial viability at 2 or 4 times MIC incubated up to 24 hrs in MHB medium followed by reincubation on MH agar plate for 24 to 48 hrs by time kill kinetics assay; assay type: functional, organism-based
Acinetobacter baumannii [11] = assay: Induction of pore formation in intact Acinetobacter baumannii 1001 cell membrane assessed as SG uptake at 2 times MIC by SG dye based fluorescence based assay; assay type: organism-based
Oryctolagus cuniculus [12] = assay: Induction of reepithelialization in injured New Zealand white rabbit cornea assessed as wound healing administered topically for qid measured at day 6 post-injury by fluorescein sodium staining based microscopic imaging analysis (reference value: 24.1 +/- 8.5 %); assay type: organism-based; conditions: in vivo, topical_or_ocular
Oryctolagus cuniculus [13] = assay: Induction of reepithelialization in injured New Zealand white rabbit cornea assessed as wound healing at 0.3% administered topically for qid measured at day 1 post-injury by fluorescein sodium staining based microscopic imaging analysis (reference value: 89.9 +/- 2.9 %); assay type: organism-based; conditions: in vivo, topical_or_ocular
[14] = Cytotoxicity against HDF cells assessed as cell viability at 500 ug/ml incubated for 24 hrs by MTS assay relative to control; assay type: cell-based; conditions: human, HDF cells (NHDF, human dermal fibroblasts); read-out: Activity
Enterococcus faecalis [15] = assay: Antibacterial activity against vancomycin-resistant Enterococcus faecalis 1002 assessed as log10 reduction in bacterial viability at 2 to 4 times MIC incubated for 30 mins in MHB medium followed by reincubation on MH agar plate for 24 to 48 hrs by time kill kinetics analysis; assay type: functional
Acinetobacter baumannii [16] = assay: Antibacterial activity against multidrug-resistant Acinetobacter baumannii assessed as reduction in bacterial growth incubated for 24 hrs by broth microdilution method; assay type: functional
T-cell [17] = assay: Immunogenicity in human PBL T cells assessed as increase in IL-5 production at 62.5 or 125 ug/ml incubated for 24 hrs by ELISA; assay type: ADME, cell-based
NHDF = assay: Cytotoxicity against HDF cells assessed as truncation and reduction in cytoskeleton at 500 ug/ml incubated for 24 hrs by Alexa Fluor […] phalloidin-FITC/Hoescht dye staining based fluorescence microscopic analysis; assay type: cell-based; conditions: human
Staphylococcus aureus [18] = assay: Antibacterial activity against methicillin-sensitive Staphylococcus aureus assessed as reduction in bacterial growth incubated for 24 hrs by broth microdilution method; assay type: functional
T-cell [19] = assay: Immunogenicity in human PBL T cells assessed as increase in IL-4 production at 62.5 or 125 ug/ml incubated for 24 hrs by ELISA; assay type: ADME, cell-based
Enterobacteriaceae = assay: Antibacterial activity against Carbapenem-Resistant Enterobacteriaceae assessed as reduction in bacterial growth incubated for 24 hrs by broth microdilution method; assay type: functional
Escherichia coli [20] = assay: Induction of pore formation in intact Escherichia coli 1004 cell membrane assessed as SG uptake at 2 times MIC by SG dye based fluorescence based assay; assay type: organism-based
Enterococcus = assay: Antibacterial activity against vancomycin-resistant Enterococcus assessed as reduction in bacterial growth incubated for 24 hrs by broth microdilution method; assay type: functional
Enterococcus faecalis [21] = assay: Antibacterial activity against vancomycin-resistant Enterococcus faecalis 1010 assessed as log10 reduction in bacterial viability at 2 to 4 times MIC incubated for 30 mins in MHB medium followed by reincubation on MH agar plate for 24 to 48 hrs by time kill kinetics analysis; assay type: functional
Oryctolagus cuniculus [22] = assay: Induction of reepithelialization in injured New Zealand white rabbit cornea assessed as wound healing administered topically for qid measured at day 4 post-injury by fluorescein sodium staining based microscopic imaging analysis (reference value: 48.4 +/- 7.6 %); assay type: organism-based; conditions: in vivo, topical_or_ocular
Pseudomonas aeruginosa = assay: Antibacterial activity against Pseudomonas aeruginosa assessed as reduction in bacterial growth incubated for 24 hrs by broth microdilution method; assay type: functional
Enterococcus faecalis [23] = assay: Antibacterial activity against vancomycin-resistant Enterococcus faecalis ATCC 29212 assessed as log10 reduction in bacterial viability at 2 to 4 times MIC incubated for 30 mins in MHB medium followed by reincubation on MH agar plate for 24 to 48 hrs by time kill kinetics analysis; assay type: functional
T-cell [24] = assay: Immunogenicity in human PBL T cells assessed as increase in IFN-gamma production at 62.5 or 125 ug/ml incubated for 24 hrs by ELISA; assay type: ADME, cell-based
Oryctolagus cuniculus [25] = assay: Induction of reepithelialization in injured New Zealand white rabbit cornea assessed as wound healing administered topically for qid measured at day 2 post-injury by fluorescein sodium staining based microscopic imaging analysis (reference value: 76.6 +/- 4.5 %); assay type: organism-based; conditions: in vivo, topical_or_ocular
Oryctolagus cuniculus [26] = assay: Induction of reepithelialization in injured New Zealand white rabbit cornea assessed as wound healing administered topically for qid measured at day 5 post-injury by fluorescein sodium staining based microscopic imaging analysis (reference value: 39.8 +/- 6.2 %); assay type: organism-based; conditions: in vivo, topical_or_ocular
Staphylococcus aureus [27] = assay: In vivo antibacterial activity against Staphylococcus aureus ATCC 29213 infected in C57BL/6 mouse assessed as reduction in bacterial burden by measuring log10 CFU/cornea at 0.3% administered topically as two times on day 1, four times on day 2 and two times on day 3 measured at 48 hrs post-final dose by 10 fold serial dilution method (reference value: 6.5 +/- 0.7 log10CFU); assay type: functional
[28] = Stability of the compound in rabbit tear fluid measured after 2 hrs by UPLC-MS analysis; assay type: ADME, Oryctolagus cuniculus
Klebsiella pneumoniae = assay: Antibacterial activity against Klebsiella pneumoniae 1008 assessed as reduction in bacterial viability at 2 or 4 times MIC incubated up to 24 hrs in MHB medium followed by reincubation on MH agar plate for 24 to 48 hrs by time kill kinetics assay; assay type: functional, organism-based
T-cell [29] = assay: Immunogenicity in human PBL T cells assessed as increase in IL-2 production at 62.5 or 125 ug/ml incubated for 24 hrs by ELISA; assay type: ADME, cell-based
Escherichia coli [30] = assay: Antibacterial activity against Escherichia coli 1004 assessed as reduction in bacterial viability at 2 or 4 times MIC incubated up to 24 hrs in MHB medium followed by reincubation on MH agar plate for 24 to 48 hrs by time kill kinetics assay; assay type: functional, organism-based
Oryctolagus cuniculus [31] = assay: Induction of reepithelialization in injured New Zealand white rabbit cornea assessed as wound healing administered topically for qid measured at day 7 post-injury by fluorescein sodium staining based microscopic imaging analysis (reference value: 8.6 %); assay type: organism-based; conditions: in vivo, topical_or_ocular

**Q.** For `CC[C@H](C)[C@H](NC(=O)CN)C(=O)NCC(=O)N[C@@H](C)C(=O)N[C@H](C(=O)N[C@@H](CC(C)C)C(=O)NCCC[C@@H](CN)C(=O)N[C@H](C(=O)N[C@@H](CC(C)C)C(=O)N[C@H](C(=O)N[C@H](C(=O)NCC(=O)N[C@@H](CC(C)C)C(=O)N1CCC[C@H]1C(=O)N[C@@H](C)C(=O)N[C@@H](CC(C)C)C(=O)N[C@H](C(=O)N[C@@H](CO)C(=O)N[C@@H](Cc1c[nH]c2ccccc12)C(=O)N[C@H](C(=O)NCCC[C@@H](CN)C(=O)N[C@@H](CCCNC(=N)N)C(=O)N[C@@H](CCCCN)C(=O)N[C@@H](CCCNC(=N)N)C(=O)N[C@@H](CCC(N)=O)C(=O)N[C@@H](CCC(N)=O)C(N)=O)[C@@H](C)CC)[C@@H](C)CC)[C@@H](C)O)[C@@H](C)O)C(C)C)C(C)C`, which HC50 at 1 h [1] is on record?
**A.** 215 µg/mL

**Q.** And the Ratio (Enterococcus faecalis [2])?
**A.** 4

**Q.** And the Activity (Acinetobacter baumannii [3])?
**A.** Active

**Q.** And the Activity (Oryctolagus cuniculus [4])?
**A.** 44.9%

**Q.** And the Activity (HaCaT)?
**A.** Toxic

**Q.** And the remaining at 4 h [5]?
**A.** 90.3%

**Q.** And the Activity (Oryctolagus cuniculus [6])?
**A.** 2.9%

**Q.** What about the Activity (Enterococcus faecalis [7]) of the same compound?
**A.** Active

**Q.** What about the MIC (Candida albicans) of the same compound?
**A.** 16 to 32 µg/mL (≈ 5.62 to 11.2 µM)

**Q.** And the MIC50 (Candida albicans)?
**A.** 32 µg/mL (≈ 11.2 µM)

**Q.** What about the Activity (Enterococcus faecalis [8]) of the same compound?
**A.** Active

**Q.** What about the MIC50 (Staphylococcus aureus [9]) of the same compound?
**A.** 64 µg/mL (≈ 22.5 µM)

**Q.** And the Activity (Acinetobacter baumannii [10])?
**A.** Active

**Q.** And the Activity (Acinetobacter baumannii [11])?
**A.** Active

**Q.** What about the Activity (Oryctolagus cuniculus [12]) of the same compound?
**A.** 14.7%

**Q.** And the Activity (Oryctolagus cuniculus [13])?
**A.** 83.4%

**Q.** And the viability at 24 h, 500 ug/ml [14]?
**A.** 91.9%

**Q.** And the “log(activity)” value (Enterococcus faecalis [15])?
**A.** >5

**Q.** What about the MIC (Acinetobacter baumannii [16]) of the same compound?
**A.** 2 to 8 µg/mL (≈ 0.703 to 2.81 µM)

**Q.** What about the MIC50 (Acinetobacter baumannii [16]) of the same compound?
**A.** 4 µg/mL (≈ 1.41 µM)

**Q.** And the Activity (T-cell [17])?
**A.** Non-Toxic

**Q.** What about the Activity (NHDF) of the same compound?
**A.** Toxic

**Q.** And the MIC (Staphylococcus aureus [18])?
**A.** 16 to 128 µg/mL (≈ 5.62 to 45 µM)

**Q.** And the MIC50 (Staphylococcus aureus [18])?
**A.** 64 µg/mL (≈ 22.5 µM)

**Q.** And the Activity (T-cell [19])?
**A.** Non-Toxic

**Q.** And the MIC (Enterobacteriaceae)?
**A.** 4 to 64 µg/mL (≈ 1.41 to 22.5 µM)

**Q.** What about the MIC50 (Enterobacteriaceae) of the same compound?
**A.** 8 µg/mL (≈ 2.81 µM)

**Q.** What about the Activity (Escherichia coli [20]) of the same compound?
**A.** Active

**Q.** And the MIC (Enterococcus)?
**A.** 4 to 16 µg/mL (≈ 1.41 to 5.62 µM)

**Q.** What about the MIC50 (Enterococcus) of the same compound?
**A.** 8 µg/mL (≈ 2.81 µM)

**Q.** What about the “log(activity)” value (Enterococcus faecalis [21]) of the same compound?
**A.** >5

**Q.** What about the Activity (Oryctolagus cuniculus [22]) of the same compound?
**A.** 33.1%

**Q.** What about the MIC (Pseudomonas aeruginosa) of the same compound?
**A.** 8 to 64 µg/mL (≈ 2.81 to 22.5 µM)

**Q.** And the MIC50 (Pseudomonas aeruginosa)?
**A.** 32 µg/mL (≈ 11.2 µM)

**Q.** What about the “log(activity)” value (Enterococcus faecalis [23]) of the same compound?
**A.** >5

**Q.** And the Activity (T-cell [24])?
**A.** Non-Toxic

**Q.** What about the Activity (Oryctolagus cuniculus [25]) of the same compound?
**A.** 60.3%

**Q.** What about the Activity (Oryctolagus cuniculus [26]) of the same compound?
**A.** 21.7%

**Q.** And the Activity (Staphylococcus aureus [27])?
**A.** 3.9 log10CFU

**Q.** What about the Stability [28] of the same compound?
**A.** Stable

**Q.** And the Activity (Klebsiella pneumoniae)?
**A.** Active

**Q.** And the Activity (T-cell [29])?
**A.** Non-Toxic

**Q.** What about the Activity (Escherichia coli [30]) of the same compound?
**A.** Active

**Q.** And the Activity (Oryctolagus cuniculus [31])?
**A.** 4.6%
